PMC9927415, “Tyrosine Kinase Inhibitors Display Potent Activity against Cryptosporidium parvum” (Microbiology Spectrum, 2022)

Experiments:
Assay in all cases: KINOMEscan competitive binding, whole panel
panel of 203 kinases [1] = target: T1, panel of 203 kinases (Homo sapiens, UniProt Q13555); settings: 10 µM, n=1; kinase CAMK2G; read-out: Percent inhibition CAMK2G
T1 construct: purchased DiscoverX (KINOMEscan)
Method in brief: (§1)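 Read-out is the amount of kinase still captured on an immobilized ATP-site probe after exposure to test compound, expressed as percentage inhibition.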

panel of 203 kinases [2] = target: T2, panel of 203 kinases (Homo sapiens, UniProt P29320); settings: 10 µM, n=1; kinase EPHA3; read-out: Percent inhibition EPHA3
T2 construct: purchased DiscoverX (KINOMEscan)
T2 sequence (P29320 21-983): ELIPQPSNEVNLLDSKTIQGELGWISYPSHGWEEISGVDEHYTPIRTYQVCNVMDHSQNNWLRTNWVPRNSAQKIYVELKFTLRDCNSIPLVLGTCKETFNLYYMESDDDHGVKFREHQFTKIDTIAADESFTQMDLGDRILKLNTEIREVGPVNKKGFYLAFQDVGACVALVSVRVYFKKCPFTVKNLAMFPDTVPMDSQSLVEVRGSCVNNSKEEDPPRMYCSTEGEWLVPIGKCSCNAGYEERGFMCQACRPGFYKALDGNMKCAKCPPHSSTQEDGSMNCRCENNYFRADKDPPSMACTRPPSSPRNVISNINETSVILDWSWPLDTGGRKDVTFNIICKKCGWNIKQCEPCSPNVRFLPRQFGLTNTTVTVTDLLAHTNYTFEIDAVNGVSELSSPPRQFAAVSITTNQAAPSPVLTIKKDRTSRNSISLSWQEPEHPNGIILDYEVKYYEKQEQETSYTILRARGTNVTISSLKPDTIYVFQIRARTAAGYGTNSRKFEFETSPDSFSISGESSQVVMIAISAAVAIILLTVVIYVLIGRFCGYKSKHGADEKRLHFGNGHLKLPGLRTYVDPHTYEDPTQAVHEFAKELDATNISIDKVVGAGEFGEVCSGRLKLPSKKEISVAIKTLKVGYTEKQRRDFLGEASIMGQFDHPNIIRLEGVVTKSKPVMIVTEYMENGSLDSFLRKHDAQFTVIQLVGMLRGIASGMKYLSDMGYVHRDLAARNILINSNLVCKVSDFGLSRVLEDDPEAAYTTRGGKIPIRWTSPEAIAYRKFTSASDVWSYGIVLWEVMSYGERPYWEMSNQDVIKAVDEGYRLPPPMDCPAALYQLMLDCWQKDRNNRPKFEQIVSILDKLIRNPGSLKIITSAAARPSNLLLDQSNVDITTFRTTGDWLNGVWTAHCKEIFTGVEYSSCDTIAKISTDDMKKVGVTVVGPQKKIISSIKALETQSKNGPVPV
Method in brief: as §1

panel of 203 kinases [3] = target: T3, panel of 203 kinases (Homo sapiens, UniProt Q9UQM7); settings: 10 µM, n=1; kinase CAMK2A; read-out: Percent inhibition CAMK2A
T3 construct: purchased DiscoverX (KINOMEscan)
T3 sequence (Q9UQM7 whole entry): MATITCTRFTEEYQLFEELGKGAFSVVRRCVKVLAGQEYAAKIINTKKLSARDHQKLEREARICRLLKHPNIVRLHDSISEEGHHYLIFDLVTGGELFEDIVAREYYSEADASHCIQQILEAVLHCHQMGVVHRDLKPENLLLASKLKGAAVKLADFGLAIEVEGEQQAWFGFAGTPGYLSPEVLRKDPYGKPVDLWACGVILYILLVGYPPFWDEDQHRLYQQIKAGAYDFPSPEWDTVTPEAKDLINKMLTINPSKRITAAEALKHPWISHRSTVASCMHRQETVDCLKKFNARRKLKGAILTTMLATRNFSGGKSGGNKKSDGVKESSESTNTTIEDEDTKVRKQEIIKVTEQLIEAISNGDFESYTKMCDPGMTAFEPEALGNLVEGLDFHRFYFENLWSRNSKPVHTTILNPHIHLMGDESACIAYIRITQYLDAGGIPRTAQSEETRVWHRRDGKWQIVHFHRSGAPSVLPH
Method in brief: as §1

panel of 203 kinases [4] = target: T4, panel of 203 kinases (Homo sapiens, UniProt P45983); settings: 10 µM, n=1; kinase JNK1; read-out: Percent inhibition JNK1
T4 construct: purchased DiscoverX (KINOMEscan)
Method in brief: as §1

panel of 203 kinases [5] = target: T5, panel of 203 kinases (Homo sapiens, UniProt Q9P289); settings: 10 µM, n=1; kinase MST4; read-out: Percent inhibition MST4
T5 construct: purchased DiscoverX (KINOMEscan)
T5 sequence (Q9P289 whole entry): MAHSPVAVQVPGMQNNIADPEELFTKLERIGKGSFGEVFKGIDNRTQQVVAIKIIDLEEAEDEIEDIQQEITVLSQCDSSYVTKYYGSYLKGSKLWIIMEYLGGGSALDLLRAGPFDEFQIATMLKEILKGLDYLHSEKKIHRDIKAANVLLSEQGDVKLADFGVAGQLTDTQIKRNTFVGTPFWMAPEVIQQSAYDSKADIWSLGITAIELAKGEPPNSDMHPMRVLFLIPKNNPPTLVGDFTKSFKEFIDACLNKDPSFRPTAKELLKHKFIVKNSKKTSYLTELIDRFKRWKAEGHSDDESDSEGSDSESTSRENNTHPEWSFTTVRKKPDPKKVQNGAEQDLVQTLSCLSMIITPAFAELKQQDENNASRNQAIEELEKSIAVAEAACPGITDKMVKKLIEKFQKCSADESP
Method in brief: as §1

panel of 203 kinases [6] = target: T6, panel of 203 kinases (Homo sapiens, UniProt Q9HC98); settings: 10 µM, n=1; kinase NEK6; read-out: Percent inhibition NEK6
T6 construct: purchased DiscoverX (KINOMEscan)
T6 sequence (Q9HC98 whole entry): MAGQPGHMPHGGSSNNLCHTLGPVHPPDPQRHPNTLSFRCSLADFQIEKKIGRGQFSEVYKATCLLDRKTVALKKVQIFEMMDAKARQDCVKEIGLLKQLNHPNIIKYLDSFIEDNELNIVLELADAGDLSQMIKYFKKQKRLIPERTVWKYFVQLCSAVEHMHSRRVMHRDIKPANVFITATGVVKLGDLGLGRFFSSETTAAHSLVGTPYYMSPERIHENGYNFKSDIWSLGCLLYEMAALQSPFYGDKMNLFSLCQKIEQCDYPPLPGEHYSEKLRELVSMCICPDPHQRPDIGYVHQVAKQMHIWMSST
Method in brief: as §1

panel of 203 kinases [7] = target: T7, panel of 203 kinases (Homo sapiens, UniProt Q15303); settings: 10 µM, n=1; kinase ERBB4; read-out: Percent inhibition ERBB4
T7 construct: purchased DiscoverX (KINOMEscan)
T7 sequence (Q15303 26-1308): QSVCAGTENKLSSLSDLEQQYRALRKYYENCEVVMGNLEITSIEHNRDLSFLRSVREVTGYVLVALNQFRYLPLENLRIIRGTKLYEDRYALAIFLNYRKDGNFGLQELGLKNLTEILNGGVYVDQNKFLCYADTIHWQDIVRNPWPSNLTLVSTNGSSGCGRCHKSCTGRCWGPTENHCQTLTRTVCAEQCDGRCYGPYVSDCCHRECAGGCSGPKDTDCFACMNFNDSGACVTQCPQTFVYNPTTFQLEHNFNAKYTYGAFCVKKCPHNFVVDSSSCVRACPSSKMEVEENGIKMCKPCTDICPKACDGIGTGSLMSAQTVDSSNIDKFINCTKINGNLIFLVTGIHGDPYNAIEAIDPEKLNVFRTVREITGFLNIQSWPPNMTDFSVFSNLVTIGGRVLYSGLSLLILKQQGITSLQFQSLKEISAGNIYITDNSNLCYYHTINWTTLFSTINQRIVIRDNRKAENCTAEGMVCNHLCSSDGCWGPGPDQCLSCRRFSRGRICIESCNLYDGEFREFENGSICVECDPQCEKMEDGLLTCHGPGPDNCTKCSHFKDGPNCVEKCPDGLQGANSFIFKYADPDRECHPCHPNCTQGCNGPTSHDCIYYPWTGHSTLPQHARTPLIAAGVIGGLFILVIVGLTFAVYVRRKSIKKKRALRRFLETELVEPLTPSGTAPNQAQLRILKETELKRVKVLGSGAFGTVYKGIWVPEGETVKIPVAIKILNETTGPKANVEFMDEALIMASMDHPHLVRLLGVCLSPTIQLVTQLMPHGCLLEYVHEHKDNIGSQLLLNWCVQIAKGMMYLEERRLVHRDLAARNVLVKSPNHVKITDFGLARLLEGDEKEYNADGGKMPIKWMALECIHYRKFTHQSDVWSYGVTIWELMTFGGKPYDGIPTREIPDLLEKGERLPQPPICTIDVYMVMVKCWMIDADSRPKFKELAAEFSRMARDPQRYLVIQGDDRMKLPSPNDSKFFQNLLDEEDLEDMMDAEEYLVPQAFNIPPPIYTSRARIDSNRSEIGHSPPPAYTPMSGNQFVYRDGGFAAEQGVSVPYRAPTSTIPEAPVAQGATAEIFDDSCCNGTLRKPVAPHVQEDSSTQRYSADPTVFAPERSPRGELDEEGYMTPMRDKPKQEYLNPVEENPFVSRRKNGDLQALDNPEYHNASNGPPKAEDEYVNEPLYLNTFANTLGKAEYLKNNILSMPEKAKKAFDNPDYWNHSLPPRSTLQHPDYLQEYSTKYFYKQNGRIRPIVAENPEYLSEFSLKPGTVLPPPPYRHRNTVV
Method in brief: as §1

panel of 203 kinases [8] = target: T8, panel of 203 kinases (Homo sapiens, UniProt P29317); settings: 10 µM, n=1; kinase EPHA2; read-out: Percent inhibition EPHA2
T8 construct: purchased DiscoverX (KINOMEscan)
T8 sequence (P29317 24-976): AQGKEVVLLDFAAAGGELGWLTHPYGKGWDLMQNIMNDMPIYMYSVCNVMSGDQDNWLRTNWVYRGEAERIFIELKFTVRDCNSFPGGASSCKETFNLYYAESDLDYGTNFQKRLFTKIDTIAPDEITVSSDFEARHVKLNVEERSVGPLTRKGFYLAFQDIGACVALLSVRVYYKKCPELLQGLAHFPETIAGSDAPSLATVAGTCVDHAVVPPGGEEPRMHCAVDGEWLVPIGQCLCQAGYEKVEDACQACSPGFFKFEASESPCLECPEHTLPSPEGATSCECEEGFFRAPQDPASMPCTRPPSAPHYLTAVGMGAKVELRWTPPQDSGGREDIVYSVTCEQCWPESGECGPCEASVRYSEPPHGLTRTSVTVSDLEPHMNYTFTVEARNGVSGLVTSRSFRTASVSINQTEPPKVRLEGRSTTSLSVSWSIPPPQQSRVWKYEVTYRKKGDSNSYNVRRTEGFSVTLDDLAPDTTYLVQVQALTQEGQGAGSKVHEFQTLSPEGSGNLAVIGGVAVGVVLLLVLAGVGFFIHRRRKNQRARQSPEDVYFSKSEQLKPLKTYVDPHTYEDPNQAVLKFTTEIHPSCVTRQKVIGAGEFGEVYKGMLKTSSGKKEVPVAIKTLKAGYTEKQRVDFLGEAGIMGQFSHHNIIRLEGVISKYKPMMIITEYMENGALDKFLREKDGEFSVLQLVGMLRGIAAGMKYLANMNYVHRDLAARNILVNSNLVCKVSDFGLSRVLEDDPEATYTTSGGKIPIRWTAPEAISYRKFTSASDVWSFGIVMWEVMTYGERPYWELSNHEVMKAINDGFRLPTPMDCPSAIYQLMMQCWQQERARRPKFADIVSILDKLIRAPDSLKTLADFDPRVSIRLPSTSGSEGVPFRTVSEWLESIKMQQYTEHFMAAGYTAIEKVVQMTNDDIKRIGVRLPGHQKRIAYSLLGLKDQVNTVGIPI
Method in brief: as §1

panel of 203 kinases [9] = target: T9, panel of 203 kinases (Homo sapiens, UniProt P27361); settings: 10 µM, n=1; kinase ERK1; read-out: Percent inhibition ERK1
T9 construct: purchased DiscoverX (KINOMEscan)
T9 sequence (P27361 whole entry): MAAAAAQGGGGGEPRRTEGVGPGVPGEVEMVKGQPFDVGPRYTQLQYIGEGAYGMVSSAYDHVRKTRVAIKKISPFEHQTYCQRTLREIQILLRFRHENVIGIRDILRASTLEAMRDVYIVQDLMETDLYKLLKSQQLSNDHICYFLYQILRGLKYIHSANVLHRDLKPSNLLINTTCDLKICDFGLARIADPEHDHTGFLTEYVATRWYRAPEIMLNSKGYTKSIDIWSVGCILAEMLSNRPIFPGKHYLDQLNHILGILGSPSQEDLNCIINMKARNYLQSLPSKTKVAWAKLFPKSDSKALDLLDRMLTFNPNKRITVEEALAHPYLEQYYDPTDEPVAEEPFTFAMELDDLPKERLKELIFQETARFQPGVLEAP
Method in brief: as §1

panel of 203 kinases [10] = target: T10, panel of 203 kinases (Homo sapiens, UniProt P54646); settings: 10 µM, n=1; kinase AMPK-alpha2; read-out: Percent inhibition AMPK-alpha2
T10 construct: purchased DiscoverX (KINOMEscan)
T10 sequence (P54646 whole entry): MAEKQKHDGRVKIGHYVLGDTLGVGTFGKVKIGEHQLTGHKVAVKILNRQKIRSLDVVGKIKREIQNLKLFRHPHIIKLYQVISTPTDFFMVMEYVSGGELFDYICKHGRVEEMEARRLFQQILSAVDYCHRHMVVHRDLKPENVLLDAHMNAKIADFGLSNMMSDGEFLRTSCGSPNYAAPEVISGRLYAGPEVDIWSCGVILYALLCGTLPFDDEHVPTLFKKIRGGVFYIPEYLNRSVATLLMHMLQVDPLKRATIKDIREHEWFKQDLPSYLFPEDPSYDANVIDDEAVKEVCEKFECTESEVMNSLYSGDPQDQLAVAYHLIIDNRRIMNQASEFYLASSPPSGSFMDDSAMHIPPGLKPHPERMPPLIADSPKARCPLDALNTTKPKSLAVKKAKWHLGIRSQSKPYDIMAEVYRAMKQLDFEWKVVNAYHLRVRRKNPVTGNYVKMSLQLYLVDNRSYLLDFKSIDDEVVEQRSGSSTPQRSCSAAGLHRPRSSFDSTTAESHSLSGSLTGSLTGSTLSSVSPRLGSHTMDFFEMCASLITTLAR
Method in brief: as §1

panel of 203 kinases [11] = target: T11, panel of 203 kinases (Homo sapiens, UniProt Q96L34); settings: 10 µM, n=1; kinase MARK4; read-out: Percent inhibition MARK4
T11 construct: purchased DiscoverX (KINOMEscan)
T11 sequence (Q96L34 1-752): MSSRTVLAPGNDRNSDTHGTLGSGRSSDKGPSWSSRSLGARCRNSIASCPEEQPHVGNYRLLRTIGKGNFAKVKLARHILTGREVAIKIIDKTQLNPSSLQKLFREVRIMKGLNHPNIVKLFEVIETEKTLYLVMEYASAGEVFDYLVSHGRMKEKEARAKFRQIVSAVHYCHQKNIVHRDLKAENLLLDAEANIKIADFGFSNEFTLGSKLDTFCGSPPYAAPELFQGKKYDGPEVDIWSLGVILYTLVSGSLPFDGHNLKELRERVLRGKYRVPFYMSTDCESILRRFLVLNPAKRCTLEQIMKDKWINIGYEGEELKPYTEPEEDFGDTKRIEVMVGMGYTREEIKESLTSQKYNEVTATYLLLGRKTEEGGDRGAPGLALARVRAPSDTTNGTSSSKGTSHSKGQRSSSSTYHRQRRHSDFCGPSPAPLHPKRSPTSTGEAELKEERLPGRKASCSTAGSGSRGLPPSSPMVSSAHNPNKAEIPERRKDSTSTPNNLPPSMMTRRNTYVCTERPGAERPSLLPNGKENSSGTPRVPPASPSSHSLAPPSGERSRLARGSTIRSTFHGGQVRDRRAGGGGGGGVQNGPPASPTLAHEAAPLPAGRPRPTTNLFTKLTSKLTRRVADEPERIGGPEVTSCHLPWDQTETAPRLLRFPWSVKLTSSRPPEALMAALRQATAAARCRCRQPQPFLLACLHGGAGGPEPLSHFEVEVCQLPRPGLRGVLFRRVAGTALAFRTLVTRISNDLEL
Method in brief: as §1

panel of 203 kinases [12] = target: T12, panel of 203 kinases (Homo sapiens, UniProt P31749); settings: 10 µM, n=1; kinase AKT1; read-out: Percent inhibition AKT1
T12 construct: purchased DiscoverX (KINOMEscan)
Method in brief: as §1

panel of 203 kinases [13] = target: T13, panel of 203 kinases (Homo sapiens, UniProt P09769); settings: 10 µM, n=1; kinase FGR; read-out: Percent inhibition FGR
T13 construct: purchased DiscoverX (KINOMEscan)
Method in brief: as §1

T1 sequence (Q13555 whole entry): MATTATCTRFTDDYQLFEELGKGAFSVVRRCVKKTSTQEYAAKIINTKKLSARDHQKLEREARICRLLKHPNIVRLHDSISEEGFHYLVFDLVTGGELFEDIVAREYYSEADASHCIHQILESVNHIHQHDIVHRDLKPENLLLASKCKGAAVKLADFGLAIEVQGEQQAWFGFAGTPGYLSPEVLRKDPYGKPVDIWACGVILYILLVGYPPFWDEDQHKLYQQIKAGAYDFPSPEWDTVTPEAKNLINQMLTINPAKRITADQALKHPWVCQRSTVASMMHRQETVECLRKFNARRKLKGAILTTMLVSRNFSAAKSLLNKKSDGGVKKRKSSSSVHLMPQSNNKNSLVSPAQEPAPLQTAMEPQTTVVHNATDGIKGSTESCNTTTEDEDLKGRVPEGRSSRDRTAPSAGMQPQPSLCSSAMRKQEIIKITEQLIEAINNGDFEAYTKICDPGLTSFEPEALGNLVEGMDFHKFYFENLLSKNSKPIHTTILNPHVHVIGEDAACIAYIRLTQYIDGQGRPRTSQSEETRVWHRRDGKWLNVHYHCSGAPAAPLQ

Row | Structure (SMILES) | inhibition at 10 µM (panel of 203 kinases [1]) | inhibition at 10 µM (panel of 203 kinases [2]) | inhibition at 10 µM (panel of 203 kinases [3]) | inhibition at 10 µM (panel of 203 kinases [4]) | inhibition at 10 µM (panel of 203 kinases [5]) | inhibition at 10 µM (panel of 203 kinases [6]) | inhibition at 10 µM (panel of 203 kinases [7]) | inhibition at 10 µM (panel of 203 kinases [8]) | inhibition at 10 µM (panel of 203 kinases [9]) | inhibition at 10 µM (panel of 203 kinases [10]) | inhibition at 10 µM (panel of 203 kinases [11]) | inhibition at 10 µM (panel of 203 kinases [12]) | inhibition at 10 µM (panel of 203 kinases [13])
1 | Cc1ccc(O)cc1Nc1ccnc(Nc2cccc(C(N)=O)c2)n1 [Compound 3] | 0% | 100% | 0% | 76.7% | 0% | 0% | 90.9% | 99.9% | 67.8% | 0% | 0% | 0% | 100%
2 | Cc1ccc(O)cc1N(C)c1ccnc(Nc2cccc(S(N)(=O)=O)c2)n1 [Compound 4] | 0% | 100% | 0% | 87.1% | 0% | 0% | 87.3% | 99.5% | 98.1% | 0% | 0% | 0% | 100%
3 | CN1CCN(c2ccc(Nc3nccc(-c4cnn5ncccc45)n3)cc2C#N)CC1 [Compound 1] | 97.7% | 98% | 98.7% | 100% | 92.8% | 100% | 0% | 0% | 98.5% | 81.8% | 0% | 0% | 89.5%
4 | Clc1ccc(Nc2ncc(-c3ccccc3)s2)cc1 [Compound 10] | 0% | 0% | 0% | 0% | 0% | 0% | 0% | 0% | 0% | 0% | 0% | 0% | 0%
5 | Nc1ncc2c(-c3ccncc3)c[nH]c2n1 [Compound 11] | 0% | 94.6% | 77.6% | 77.1% | 84% | 0% | 0% | 0% | 0% | 0% | 93.8% | 0% | 76.8%
6 | Fc1cccc(COc2ccc(Nc3ncnc4c3CN(CCN3CCOCC3)CC4)cc2Cl)c1 [Compound 6] | 0% | 0% | 0% | 0% | 0% | 0% | 0% | 0% | 0% | 0% | 0% | 0% | 0%
7 | COc1ccc(Nc2nccc(-c3cnn4ncccc34)n2)cc1 [Compound 2] | 75.2% | 85% | 82.5% | 98.5% | 0% | 100% | 0% | 0% | 98.5% | 0% | 67.8% | 0% | 67.4%
8 | C[C@@H](Oc1cc(-c2cnc3ccccn23)sc1C(N)=O)c1ccccc1Cl [Compound 8] | 0% | 0% | 66.5% | 0% | 0% | 0% | 0% | 0% | 83.2% | 0% | 0% | 0% | 0%
9 | COc1cc(Nc2nccc(-c3sc(N)nc3-c3cccc(NC(=O)c4c(F)cccc4F)c3)n2)cc(OC)c1OC [Compound 7] | 0% | 99.7% | 0% | 100% | 89.2% | 97.4% | 100% | 99.4% | 99.8% | 100% | 0% | 0% | 100%
10 | c1ccc(COc2cccc(-c3ccnc4[nH]ccc34)c2)cc1 [Compound 9] | 0% | 0% | 0% | 0% | 0% | 0% | 0% | 0% | 0% | 0% | 0% | 0% | 0%
